In the CheMixHub viscosity set:

Assay: xn = mol fraction of the nth substance listed

CCOC(=O)c1ccccc1 + CCCCCCCCCCCC
101 kPa
Details | viscosity [mPa·s]
298.15 K, x2 = 0.031 | 1.896
298.15 K, x2 = 0.062 | 1.835
298.15 K, x2 = 0.0893 | 1.785
298.15 K, x2 = 0.1261 | 1.726
298.15 K, x2 = 0.168 | 1.663
298.15 K, x2 = 0.2378 | 1.58
298.15 K, x2 = 0.2782 | 1.532
298.15 K, x2 = 0.3577 | 1.462
298.15 K, x2 = 0.4064 | 1.427
298.15 K, x2 = 0.4557 | 1.396
298.15 K, x2 = 0.5044 | 1.371
298.15 K, x2 = 0.5519 | 1.351
298.15 K, x2 = 0.6714 | 1.331
298.15 K, x2 = 0.7194 | 1.324
298.15 K, x2 = 0.7886 | 1.32
298.15 K, x2 = 0.8626 | 1.325
298.15 K, x2 = 0.9296 | 1.335
308.15 K, x2 = 0.0462 | 1.569
308.15 K, x2 = 0.0741 | 1.532
308.15 K, x2 = 0.1171 | 1.477
308.15 K, x2 = 0.1439 | 1.445
308.15 K, x2 = 0.1806 | 1.405
308.15 K, x2 = 0.2481 | 1.342
308.15 K, x2 = 0.2629 | 1.329
308.15 K, x2 = 0.295 | 1.303
308.15 K, x2 = 0.3388 | 1.272
308.15 K, x2 = 0.3769 | 1.249
308.15 K, x2 = 0.4331 | 1.218
308.15 K, x2 = 0.4765 | 1.198
308.15 K, x2 = 0.527 | 1.178
308.15 K, x2 = 0.5759 | 1.163
308.15 K, x2 = 0.6373 | 1.149
308.15 K, x2 = 0.7278 | 1.138
308.15 K, x2 = 0.7527 | 1.136
308.15 K, x2 = 0.8209 | 1.134
308.15 K, x2 = 0.9374 | 1.142
318.15 K, x2 = 0.0278 | 1.314
318.15 K, x2 = 0.0571 | 1.276
318.15 K, x2 = 0.0872 | 1.241
318.15 K, x2 = 0.1222 | 1.203
318.15 K, x2 = 0.155 | 1.173
318.15 K, x2 = 0.1942 | 1.14
318.15 K, x2 = 0.2296 | 1.113
318.15 K, x2 = 0.2726 | 1.084
318.15 K, x2 = 0.3115 | 1.061
318.15 K, x2 = 0.3575 | 1.037
318.15 K, x2 = 0.3995 | 1.019
318.15 K, x2 = 0.4522 | 0.999
318.15 K, x2 = 0.4995 | 0.984
318.15 K, x2 = 0.5564 | 0.97
318.15 K, x2 = 0.6085 | 0.961
318.15 K, x2 = 0.6725 | 0.954
318.15 K, x2 = 0.7324 | 0.95
318.15 K, x2 = 0.7851 | 0.948
318.15 K, x2 = 0.868 | 0.953

CCOC(=O)c1ccccc1 + CCCCCCCCCCCCCC
101 kPa
Details | viscosity [mPa·s]
298.15 K, x2 = 0.0376 | 1.927
298.15 K, x2 = 0.0653 | 1.899
298.15 K, x2 = 0.097 | 1.866
298.15 K, x2 = 0.1285 | 1.84
298.15 K, x2 = 0.1619 | 1.815
298.15 K, x2 = 0.1952 | 1.799
298.15 K, x2 = 0.229 | 1.781
298.15 K, x2 = 0.269 | 1.767
298.15 K, x2 = 0.3084 | 1.754
298.15 K, x2 = 0.3521 | 1.745
298.15 K, x2 = 0.3928 | 1.742
298.15 K, x2 = 0.4877 | 1.744
298.15 K, x2 = 0.5485 | 1.755
298.15 K, x2 = 0.5924 | 1.767
298.15 K, x2 = 0.6572 | 1.791
298.15 K, x2 = 0.7238 | 1.827
298.15 K, x2 = 0.7795 | 1.867
298.15 K, x2 = 0.8695 | 1.935
308.15 K, x2 = 0.0358 | 1.606
308.15 K, x2 = 0.0727 | 1.582
308.15 K, x2 = 0.1009 | 1.566
308.15 K, x2 = 0.1305 | 1.552
308.15 K, x2 = 0.1614 | 1.537
308.15 K, x2 = 0.198 | 1.524
308.15 K, x2 = 0.2316 | 1.515
308.15 K, x2 = 0.2666 | 1.506
308.15 K, x2 = 0.3094 | 1.498
308.15 K, x2 = 0.3501 | 1.493
308.15 K, x2 = 0.3905 | 1.49
308.15 K, x2 = 0.4393 | 1.489
308.15 K, x2 = 0.4794 | 1.491
308.15 K, x2 = 0.5373 | 1.498
308.15 K, x2 = 0.5983 | 1.51
308.15 K, x2 = 0.6573 | 1.527
308.15 K, x2 = 0.7193 | 1.552
308.15 K, x2 = 0.8442 | 1.615
308.15 K, x2 = 0.9249 | 1.663
318.15 K, x2 = 0.0231 | 1.332
318.15 K, x2 = 0.0543 | 1.31
318.15 K, x2 = 0.0817 | 1.291
318.15 K, x2 = 0.1144 | 1.274
318.15 K, x2 = 0.1449 | 1.259
318.15 K, x2 = 0.1819 | 1.245
318.15 K, x2 = 0.2156 | 1.233
318.15 K, x2 = 0.2563 | 1.225
318.15 K, x2 = 0.2936 | 1.219
318.15 K, x2 = 0.3396 | 1.213
318.15 K, x2 = 0.3807 | 1.212
318.15 K, x2 = 0.4322 | 1.213
318.15 K, x2 = 0.4784 | 1.216
318.15 K, x2 = 0.5446 | 1.226
318.15 K, x2 = 0.5958 | 1.237
318.15 K, x2 = 0.6468 | 1.251
318.15 K, x2 = 0.6941 | 1.267
318.15 K, x2 = 0.7925 | 1.306
318.15 K, x2 = 0.8579 | 1.336

CC(C)CC1CCCCC1 + CCCCCCCCCCCCCCCC
viscosity [mPa·s], 102 kPa
Details | x1 = 0.1 | x1 = 0.2005 | x1 = 0.3003 | x1 = 0.3992 | x1 = 0.5037 | x1 = 0.6003 | x1 = 0.6997 | x1 = 0.7997
293.15 K | 3.22 | 2.96 | 2.7 | 2.46 | 2.2 | 1.99 | 1.77 | 1.56
303.15 K | 2.57 | 2.38 | 2.19 | 2.01 | 1.82 | 1.65 | 1.48 | 1.31
313.15 K | 2.1 | 1.95 | 1.81 | 1.67 | 1.52 | 1.39 | 1.26 | 1.12
323.15 K | 1.74 | 1.63 | 1.52 | 1.41 | 1.29 | 1.19 | 1.07 | 0.972
